The conditions of the data set: 0 cells.

Structures are written as SMILES. Like-named read-outs stand apart in the source and are kept apart here.

For the compound `CBr` [MeBr, methyl bromide], the “CO2 Production Rate” value (0.76 mg MeBr added) was 0 mg/day, the “CO2 Production Rate” value (1.36 mg MeBr added) is 0 mg/day and the “CO2 Production Rate” value (5.30 mg MeBr added) stood at 0 mg/day. For the same compound, the “MeBr Oxidation Rate” value is, setting by setting: (0.76 mg MeBr added) 0.029 mg/day; (1.36 mg MeBr added) 0.062 mg/day; (5.30 mg MeBr added) 0.208 mg/day.

The record behind these values is patent US6916446B1, “Bioreactor method, apparatus and product thereby” (The United States of America as represented by the …, priority 2002, dated 2005).
